Source: patent US7326707B2, “Bicyclic melanocortin-specific compounds” (Palatin Technologies Incorporated, priority 2001, dated 2008)

Experiments:
[1] = target: T1, B-16 mouse melanoma cells (containing MC1-R) (Mus musculus, UniProt Q01727); test: Competitive inhibition binding assay, 125I-NDP-α-MSH, MC1-R; settings: for Inhibition at 1 μM MC1-R: 1 μM compound, inhibition of 125I-NDP-α-MSH binding, mean of triplicates, results less than 0% reported as 0%
T1 construct: B-16 mouse melanoma cells (containing MC1-R); endogenous in cells; host or cells: B-16 mouse melanoma cells
T1 sequence (Q01727 whole entry): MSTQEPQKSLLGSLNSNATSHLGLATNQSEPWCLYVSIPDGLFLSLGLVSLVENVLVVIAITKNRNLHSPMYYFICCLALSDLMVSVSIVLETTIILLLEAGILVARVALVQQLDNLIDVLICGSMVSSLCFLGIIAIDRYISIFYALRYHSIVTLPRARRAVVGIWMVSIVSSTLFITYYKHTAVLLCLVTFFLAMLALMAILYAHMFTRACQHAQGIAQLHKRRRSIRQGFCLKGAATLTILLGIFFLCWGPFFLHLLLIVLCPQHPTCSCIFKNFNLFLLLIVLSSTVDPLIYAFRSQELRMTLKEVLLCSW
Experimental: (§1) Incubation was for 90 minutes at room temperature, after which the assay mixture was filtered and the membranes washed three times with ice cold buffer. The filter was dried and counted in a gamma counter for remaining radioactivity bound to the membranes. […] Each assay was conducted in triplicate and the actual mean values are described.

[2] = target: T2, hMC3-R (Homo sapiens, UniProt P41968); test: Competitive inhibition binding assay, 125I-NDP-α-MSH, MC3-R; settings: for Inhibition at 1 μM MC3-R: 1 μM compound, inhibition of 125I-NDP-α-MSH binding, mean of triplicates, results less than 0% reported as 0%
T2 construct: expressed in transfected cells
T2 sequence (P41968 whole entry): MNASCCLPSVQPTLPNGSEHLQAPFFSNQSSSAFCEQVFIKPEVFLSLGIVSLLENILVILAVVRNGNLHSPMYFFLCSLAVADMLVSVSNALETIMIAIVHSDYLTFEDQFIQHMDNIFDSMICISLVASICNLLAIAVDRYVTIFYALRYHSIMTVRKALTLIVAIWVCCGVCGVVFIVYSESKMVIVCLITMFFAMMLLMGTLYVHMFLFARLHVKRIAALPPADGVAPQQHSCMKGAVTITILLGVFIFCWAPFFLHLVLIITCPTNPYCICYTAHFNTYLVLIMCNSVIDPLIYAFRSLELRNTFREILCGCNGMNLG
Experimental: as §1

[3] = target: T3, hMC4-R (Homo sapiens, UniProt P32245); test: Competitive inhibition binding assay, 125I-NDP-α-MSH, MC4-R; settings: for Inhibition at 1 μM MC4-R: 1 μM compound, inhibition of 125I-NDP-α-MSH binding, mean of triplicates, results less than 0% reported as 0%
T3 construct: expressed in transfected cells
T3 sequence (P32245 whole entry): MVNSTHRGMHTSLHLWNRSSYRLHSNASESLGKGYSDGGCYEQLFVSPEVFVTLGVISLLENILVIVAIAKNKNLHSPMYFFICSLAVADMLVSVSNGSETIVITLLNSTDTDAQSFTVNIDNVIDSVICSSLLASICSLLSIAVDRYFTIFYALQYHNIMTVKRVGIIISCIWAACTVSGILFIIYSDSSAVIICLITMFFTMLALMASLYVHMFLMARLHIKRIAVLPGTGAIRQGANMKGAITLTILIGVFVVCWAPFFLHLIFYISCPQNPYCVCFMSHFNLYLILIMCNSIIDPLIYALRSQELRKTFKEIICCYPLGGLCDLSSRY
Experimental: as §1

[4] = target: T4, hMC5-R (Homo sapiens, UniProt P33032); test: Competitive inhibition binding assay, 125I-NDP-α-MSH, MC5-R; settings: for Inhibition at 1 μM MC5-R: 1 μM compound, inhibition of 125I-NDP-α-MSH binding, mean of triplicates, results less than 0% reported as 0%
T4 construct: expressed in transfected cells
T4 sequence (P33032 whole entry): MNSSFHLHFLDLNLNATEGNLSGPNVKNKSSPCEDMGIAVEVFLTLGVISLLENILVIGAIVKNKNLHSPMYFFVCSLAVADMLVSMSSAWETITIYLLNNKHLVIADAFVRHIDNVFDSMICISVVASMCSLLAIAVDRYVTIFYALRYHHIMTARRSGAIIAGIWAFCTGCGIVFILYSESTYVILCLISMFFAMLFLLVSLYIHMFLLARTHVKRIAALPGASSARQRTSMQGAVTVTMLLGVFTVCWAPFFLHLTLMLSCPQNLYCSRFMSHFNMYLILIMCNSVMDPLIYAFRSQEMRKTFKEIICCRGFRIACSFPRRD
Experimental: as §1

[5] = target: T5, MC1-R (B-16 mouse melanoma cells) (Mus musculus, UniProt Q01727); test: Ki determination by the method of Example 4, MC1-R; format: cell-based
T5 construct: B-16 mouse melanoma cells (containing MC1-R); endogenous in cells; host or cells: B-16 mouse melanoma cells
T5 sequence (Q01727 whole entry): as the sequence (Q01727 whole entry) above

[6] = target: T6, MC3-R (HEK-293 cells expressing MC3-R) (Homo sapiens, UniProt P41968); test: Ki determination by the method of Example 4, MC3-R; format: cell-based
T6 construct: expressed in transfected cells; host or cells: HEK-293
T6 sequence (P41968 whole entry): as the sequence (P41968 whole entry) above

[7] = target: T7, MC4-R (HEK-293 cells expressing MC4-R) (Homo sapiens, UniProt P32245); test: Ki determination by the method of Example 4, MC4-R; format: cell-based
T7 construct: expressed in transfected cells; host or cells: HEK-293
T7 sequence (P32245 whole entry): as the sequence (P32245 whole entry) above
Experimental: (§2) The Ki (nM) of certain compounds of the invention were determined. Functional evaluation of compounds at melanocortin receptors was performed by measuring the accumulation of intracellular cAMP in HEK-293 cells expressing MC3-R, MC4-R or MC5-R, and in B-16 mouse melanoma cells (containing MC1-R). Cells, suspended in Earle's Balanced Salt Solution containing 10 mM HEPES, pH 7.5, 5 mM MgCl2, 1 mM glutamine, 0.1% albumin and 0.6 mM 3-isobutyl-1-methyl-xanthine, a phosphodiesterase inhibitor, were plated in 96 well plates at a density of 0.5×10^5 cells per well. Cells were incubated with the test compounds in the presence or absence of α-MSH for 1 hour at 37° C. cAMP levels were measured by EIA (Amersham) in the cell lysates. Data analysis and EC50 values were determined using nonlinear regression analysis with Prism Graph-Pad software.

[8] = target: T8, MC5-R (HEK-293 cells expressing MC5-R) (Homo sapiens, UniProt P33032); test: Ki determination by the method of Example 4, MC5-R; format: cell-based
T8 construct: expressed in transfected cells; host or cells: HEK-293
T8 sequence (P33032 whole entry): as the sequence (P33032 whole entry) above

[9] = target: T5, MC1-R (B-16 mouse melanoma cells); test: cAMP assay for agonist/antagonist status, MC1-R; format: cell-based; settings: cAMP assay as in Example 5
Experimental: as §2
(§3) The agonist/antagonist status with respect to MC1-R, MC4-R and MC5-R of certain compounds of the invention was determined. Antagonistic activity was determined by measuring the inhibition of α-MSH-induced cAMP levels following exposure to the compounds as in Example 4.

[10] = target: T7, MC4-R (HEK-293 cells expressing MC4-R); test: cAMP assay for agonist/antagonist status, MC4-R; format: cell-based; settings: cAMP assay as in Example 5
Experimental: as §2, §3

[11] = target: T8, MC5-R (HEK-293 cells expressing MC5-R); test: cAMP assay for agonist/antagonist status, MC5-R; format: cell-based; settings: cAMP assay as in Example 5
Experimental: as §2, §3

[12] = tested on: Male Sprague-Dawley rats; test: ICV food intake and body weight change; format: in vivo, rat; settings: 1 nmol dose
Experimental: Change in food intake and body weight was evaluated for selected compounds. Male Sprague-Dawley rats weighing ˜300 g at the beginning of the experiment were kept on a 12 hour on/off light cycle. Lights out was adjusted to 12:00 p.m. to allow for dosing just prior to the start of their dark period. Rats (8-12/group) were fed powdered chow and water ad libitum. For 1 week before treatment, 24-hour food intake and body weight change was recorded to assess a baseline for the group during vehicle treatment. The rats were dosed ICV with vehicle or selected compounds (1-3 nmol). The changes in body weight and food intake for the 24 hour period after dosing were determined. The changes in body weight and food intake for the 48 hour period, and in same cases for 72 hours as well, after dosing were also measured to determined reversal of changes in body weight and food intake effect back to baseline.

Row | inhibition at 1 µM [1] | inhibition at 1 µM [2] | inhibition at 1 µM [3] | inhibition at 1 µM [4] | Ki [5] | Ki [6] | Ki [7] | Ki [8] | Inhibition at 1 μM MC1-R [1] | Inhibition at 1 μM MC3-R [2] | Inhibition at 1 μM MC4-R [3] | Inhibition at 1 μM MC5-R [4] | Structure (SMILES) | agonist/antagonist status as to MC1-R [9] | agonist/antagonist status as to MC4-R [10] | agonist/antagonist status as to MC5-R [11] | 24 hour change in food intake [12] | change in weight ([12]; 24 hour)
1 | 95% | 24% | 94% | 73% | 10 nM | 787 nM | 24 nM | 398 nM | – | – | – | – | NCCCCC1C(=O)N2C(COc3ccc4ccccc4c3)CCC2N1C(=O)C(Cc1ccc(Cl)cc1)NC(=O)C1Cc2ccccc2CN1 (centres unmarked) [Example 11] | – | – | – | – | –
2 | 98% | 75% | 98% | 95% | 13 nM | 181 nM | 22 nM | 116 nM | – | – | – | – | CCCCCCC(=O)NC(COCc1ccccc1)C(=O)NC(Cc1ccc(Cl)cc1)C(=O)N1C(CCCCN)C(=O)N2C(COc3ccc4ccccc4c3)CCC21 (centres unmarked) [Example 12] | – | – | – | – | –
3 | – | – | – | – | – | – | – | – | 34% | 0% | 47% | 14% | [2H]N[C@@H](Cc1cnc[nH]1)C(=O)N[C@@H](Cc1ccccc1)C(=O)N1C[C@H](OCc2ccccc2)C[C@H]1C(=O)NCCCCCN [Example 26] | – | – | – | – | –
4 | – | – | – | – | – | – | – | – | 39% | 0% | 12% | 17% | [2H]N[C@@H](Cc1cnc[nH]1)C(=O)N[C@@H](Cc1ccccc1)C(=O)N1C[C@H](OCc2ccccc2)C[C@H]1C(=O)NCCCCCCN [Example 27] | – | – | – | – | –
5 | 77% | 42% | 98% | 87% | 81 nM | 756 nM | 9 nM | 301 nM | – | – | – | – | N=C(N)NCCCC1C(=O)N2C(COc3ccc4ccccc4c3)CCC2N1C(=O)C(Cc1ccccc1Cl)NC(=O)C1Cc2ccccc2CN1 (centres unmarked) [Example 29] | – | – | – | – | –
6 | 57% | 29% | 94% | 94% | 121 nM | 733 nM | 41 nM | 151 nM | – | – | – | – | N=C(N)NCCCC1C(=O)N2C(COc3ccc4ccccc4c3)CCC2N1C(=O)C(Cc1ccccc1Cl)NC(=O)C(N)COCc1ccccc1 (centres unmarked) [Example 30] | – | – | – | – | –
7 | – | – | – | – | – | – | – | – | – | – | – | – | N=C(N)NCCCC1C(=O)N2C(COc3ccc4ccccc4c3)CCC2N1C(=O)C(Cc1ccccc1Cl)NC(=O)C1CC(OCc2ccccc2)CN1 (centres unmarked) [Example 31] | agonist | agonist | – | – | –
8 | 1% | 4% | 0% | 0% | – | – | – | – | – | – | – | – | [2H]N[C@@H](Cc1ccccc1)C(=O)N1C2CC[C@H](COc3ccccc3)N2C(=O)[C@@H]1CCCCN (some centres unmarked) [Example 36] | – | – | – | – | –
9 | 46% | 13% | 0% | 1% | – | – | – | – | – | – | – | – | [2H]N[C@@H](Cc1ccccc1)C(=O)N1C2CC[C@H](COc3ccc4ccccc4c3)N2C(=O)[C@@H]1CCCCN (some centres unmarked) [Example 38] | – | – | – | – | –
10 | – | 0% | 36% | 0% | – | – | – | – | – | – | – | – | [2H]N[C@@H](Cc1cnc[nH]1)C(=O)N[C@@H](Cc1ccccc1)C(=O)N1C2CC[C@H](COc3ccc4ccccc4c3)N2C(=O)[C@@H]1CCCCN (some centres unmarked) [Example 42] | – | – | – | – | –
11 | – | – | – | – | 1040 nM | 312 nM | – | – | – | – | – | – | N=C(N)NCCCC1C(=O)N2C(COc3ccc4ccccc4c3)CCC2N1C(=O)C(Cc1ccc(Cl)cc1Cl)NC(=O)C1CCC(c2ccccc2)N1 (centres unmarked) [Example 46] | – | – | – | -9.52 g | -10.64 g

Row | Structure (SMILES) | inhibition at 1 µM [1] | inhibition at 1 µM [2] | inhibition at 1 µM [3] | inhibition at 1 µM [4] | Ki [5] | Ki [6] | Ki [7] | Ki [8] | Inhibition at 1 μM MC1-R [1] | Inhibition at 1 μM MC3-R [2] | Inhibition at 1 μM MC4-R [3] | Inhibition at 1 μM MC5-R [4] | agonist/antagonist status as to MC1-R [9] | agonist/antagonist status as to MC4-R [10] | agonist/antagonist status as to MC5-R [11] | 24 hour change in food intake [12] | change in weight ([12]; 24 hour)
12 | N=C(N)NCCCC1C(=O)N2C(COc3ccc4ccccc4c3)CCC2N1C(=O)C(N)Cc1ccc(Cl)cc1Cl (centres unmarked) [Compound B] | 54% | 75% | 98% | 69% | 144 nM | 132 nM | 11 nM | 499 nM | – | – | – | – | agonist | agonist | agonist | – | –
13 | N=C(N)NCCCC1C(=O)N2C(Cc3ccc4ccccc4c3)CCC2N1C(=O)C(N)Cc1ccc(Cl)cc1Cl (centres unmarked) [Compound G] | 76% | 63% | 93% | 46% | 63 nM | 121 nM | 19 nM | 1050 nM | – | – | – | – | – | agonist | agonist | – | –
14 | N=C(N)NCCCC1C(=O)N2C(COc3ccc4ccccc4c3)CCC2N1CC(N)Cc1ccc(Cl)cc1Cl (centres unmarked) [Compound O] | 2% | 28% | 91% | 49% | 848 nM | 505 nM | 29 nM | 689 nM | – | – | – | – | – | – | – | – | –
